One data set deals with Acetylcholinesterase (Homo sapiens, UniProt P22303). The data set can be described thus: Inhibition of recombinant human AChE using acetylthiocholine iodide as substrate preincubated with compound for 20 mins followed by substrate addition and measured after 240 sec by spectrophotometer based Ellman's method. For orientation: In Ellman's method for cholinesterases, released thiocholine reacts with DTNB.

Data set [1] has as its system HepG2. The data set can be described thus: Cytotoxicity against human HepG2 cells assessed as reduction in cell viability at 100 uM incubated for 24 hrs by MTT assay. The settings on record: hepg2, 24 h. It is filed as toxicity, cell-based. (Tetrazolium dyes change colour on reduction, which living cells bring about.)
The test system of data set [2] is HepG2. The data set can be described thus: Cytotoxicity against human HepG2 cells assessed as reduction in cell viability at 10 uM incubated for 24 hrs by MTT assay relative to control. In kind it is toxicity, cell-based. The settings on record: hepg2, 24 h.
The subject of data set [3] is HepG2. The data set is described as follows: Cytotoxicity against human HepG2 cells assessed as reduction in cell viability at 1 uM incubated for 24 hrs by MTT assay. It is filed as toxicity, cell-based. The settings on record: hepg2, 24 h.
A further data set addresses Cholinesterase (Homo sapiens, UniProt P06276). The data set is described as follows: Inhibition of human serum BChE using butyrylthiocholine iodide as substrate preincubated with compound for 20 mins followed by substrate addition and measured after 240 sec by spectrophotometer based Ellman's method. In kind it is cell-free.

The structures appear in SMILES notation.

Chain of Cholinesterase (P06276 whole entry): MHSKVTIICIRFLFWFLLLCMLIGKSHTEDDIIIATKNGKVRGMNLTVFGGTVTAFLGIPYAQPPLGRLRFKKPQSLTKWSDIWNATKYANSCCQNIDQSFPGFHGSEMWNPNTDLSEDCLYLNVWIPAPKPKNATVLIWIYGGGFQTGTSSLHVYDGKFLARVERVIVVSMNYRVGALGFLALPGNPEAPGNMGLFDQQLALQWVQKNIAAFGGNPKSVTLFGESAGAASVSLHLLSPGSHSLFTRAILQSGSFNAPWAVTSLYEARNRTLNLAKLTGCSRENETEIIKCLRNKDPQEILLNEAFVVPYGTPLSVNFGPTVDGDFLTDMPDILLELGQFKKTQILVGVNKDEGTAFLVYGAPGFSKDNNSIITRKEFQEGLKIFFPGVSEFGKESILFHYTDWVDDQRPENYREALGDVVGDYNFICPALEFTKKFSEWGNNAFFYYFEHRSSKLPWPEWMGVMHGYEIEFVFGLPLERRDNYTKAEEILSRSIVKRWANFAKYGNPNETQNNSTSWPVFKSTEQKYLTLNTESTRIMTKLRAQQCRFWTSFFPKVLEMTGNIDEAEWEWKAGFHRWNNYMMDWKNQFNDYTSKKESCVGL
Chain of Acetylcholinesterase (P22303 whole entry): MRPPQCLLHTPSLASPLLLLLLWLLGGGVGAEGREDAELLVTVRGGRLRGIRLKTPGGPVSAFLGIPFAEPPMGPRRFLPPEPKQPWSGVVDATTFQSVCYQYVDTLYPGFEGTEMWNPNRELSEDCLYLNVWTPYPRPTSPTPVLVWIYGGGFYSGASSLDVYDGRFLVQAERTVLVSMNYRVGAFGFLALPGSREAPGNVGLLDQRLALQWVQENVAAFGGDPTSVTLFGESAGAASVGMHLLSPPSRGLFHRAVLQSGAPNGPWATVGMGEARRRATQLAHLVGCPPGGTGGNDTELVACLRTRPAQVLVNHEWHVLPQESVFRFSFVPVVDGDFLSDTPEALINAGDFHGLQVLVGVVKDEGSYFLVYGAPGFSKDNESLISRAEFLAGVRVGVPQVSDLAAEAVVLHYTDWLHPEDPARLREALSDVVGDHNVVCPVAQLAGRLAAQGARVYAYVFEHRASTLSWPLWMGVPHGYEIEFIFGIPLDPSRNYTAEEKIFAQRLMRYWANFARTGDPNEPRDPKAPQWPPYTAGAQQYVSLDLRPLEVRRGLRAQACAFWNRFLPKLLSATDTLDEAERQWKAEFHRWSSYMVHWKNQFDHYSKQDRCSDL

As to `Cc1cc(=O)[nH]c2c1C(=O)C(NCCCCNc1c3c(nc4ccccc14)CCCC3)=CC2=O`, the results for the IC50 on Acetylcholinesterase and at Cholinesterase were 58.3 nM and 109 nM, respectively. Also, the Activity result with HepG2 [1] was “Toxic”; in the data set with HepG2 [2], 14%; with HepG2 [3] it was “Non-Toxic”.
For `Cc1cc(=O)[nH]c2c1C(=O)C(NCCNc1c3c(nc4cc(Cl)ccc14)CCCC3)=CC2=O` the same measures were 121 nM, 2100 nM, “Toxic”, 50% and “Non-Toxic”.
For `Cc1cc(=O)[nH]c2c1C(=O)C(NCCCNc1c3c(nc4cc(Cl)ccc14)CCCC3)=CC2=O` the same measures were 11.1 nM, 1340 nM, “Toxic”, 50% and “Non-Toxic”.
For `Cc1cc(=O)[nH]c2c1C(=O)C(NCCCCNc1c3c(nc4cc(Cl)ccc14)CCCC3)=CC2=O` the same measures were 5.58 nM, 2830 nM, “Toxic”, 50% and “Non-Toxic”.
With `Cc1cc(=O)[nH]c2c1C(=O)C(NCCNc1c3c(nc4ccccc14)CCCC3)=CC2=O`, the values for the IC50 at Acetylcholinesterase and at Cholinesterase were 667 nM and 182 nM, respectively. Further, the Activity result is reported as “Toxic” in the data set with HepG2 [1], 12% in the data set with HepG2 [2] and “Non-Toxic” in the data set with HepG2 [3].

Source of the values: ChEMBL document CHEMBL5325484, “Quinolinetrione-tacrine hybrids as multi-target-directed ligands against Alzheimer's disease” (Bioorg Med Chem, 2023).
